# Reference: PubChem BioAssay AID2060512 (Molecular Pharmacology Branch, DTP, NCI, 2025)
# Values joined by “and” are separate entries in the source; they are usually repeats but may differ in a detail not shown here. Identical values can stand only once.
# Tested on: 186277-243-T-J2-PDC complex spheroid viability
# Test: Anticancer human tumor 186277-243-T-J2-PDC patient-derived colon adenocarcinoma cell line growth inhibition [GQUAD]
# Conditions: for viability, T/C: stronger effect = lower value
# From the text: DNA G-quadruplex Stabilizer Agents in Combinations in Complex Spheroids
# A high-throughput screen of multi-cell type tumor spheroids was designed to identify active combinations of DNA G-quadruplex stabilizer agents and targeted small molecules. Complex spheroids include a stromal component modeled by human endothelial cells (HUVEC) and fibroblasts modeled by human mesenchymal stem cells (MSCs). The concentration ranges selected for each drug and investigational agent were based upon clinically achievable concentrations if the clinical Cmax of the agent was known.
# Compounds. The drugs and investigational agents: pidnarulex (CX-5461; NSC782164), APTO-253 (NSC789042), BRACO-19 (NSC847499), peposertib (NSC802822), ceralasertib (NSC780249), elimusertib (NSC800525), camonsertib (NSC841442), AZD-1390 (NSC803789), olaparib (NSC753686), talazoparib (NSC767125), ART-558 (NSC835418), sotorasib (NSC818433), MRTX-1133 (NSC836407), SN-38 (NSC673596), topotecan (NSC609699), etoposide (NSC141540), doxorubicin (NSC123127), gemcitabine (NSC613327), 5-fluorouracil (NSC19893), paclitaxel (NSC125973), vemurafenib (NSC761431), panobinostat (NSC761190), R-306465 (JNJ-16241199; NSC773264), adavosertib (NSC754352), TP-3654 (NSC805149), carboplatin (NSC241240), KSQ-4279 (NSC840948), and staurosporine (NSC755774) were obtained from the National Cancer Institute (NCI) Developmental Therapeutics Program Chemical Repository (34). The FDA-approved anticancer drug set is available from the NCI Developmental Therapeutics Program. […] The stock solutions were prepared in dimethyl sulfoxide (DMSO, Sigma-Aldrich, St. Louis, MO, cat. D2650) at 800-fold the tested concentration and stored at -70 degrees C prior to their use. All drugs and investigational agents were tested over a range starting from a high concentration at or near the clinical Cmax and decreasing in half-log increments. If the clinical Cmax for an agent had not been determined, the highest concentration tested was 10 microM.
# 2.3 Cell Culture. All cells were maintained in an incubator at 37 degrees C and 5% CO2 with 95% humidity. The PDC lines were cultured according to standard operating procedures established by the NCI PDMR. All PDCs were thawed and cultured in Matrigel-coated flasks prepared with a working solution of 1X Ham's F-12 nutrient mix, without supplementation (Invitrogen, cat. 11765054), 100 U/mL penicillin-streptomycin (Invitrogen, cat. 15140122), and 2.5% Matrigel (Corning Inc., cat. 354248) for the first three passages. The 857933-349-R-J2-PDC line was cultured in 6C/Colon 1B media, which includes advanced DMEM/F-12 (Thermo Fisher Scientific, cat. 12634028), 10 mM HEPES (Thermo Fisher Scientific, cat. 15630080), 1X GlutaMAX supplement (Thermo Fisher Scientific, cat. 35050061), 0.1 mg/mL primocin (InvivoGen, cat. ant-pm-2), 10% defined fetal bovine serum, heat inactivated (HyClone Laboratories Inc., cat. SH30070.03HI), 50% L-WRN conditioned media (ATCC, cat. CRL-3276), 1.25 mM N-Acetyl-L-cysteine (Sigma-Aldrich, cat. A9165), 10 mM nicotinamide (Sigma-Aldrich, cat. N0636), 1X B-27 supplement (Thermo Fisher Scientific, cat. 17504044), 1X N-2 supplement (Thermo Fisher Scientific, cat. 17502048), 10 microM Y-27632 dihydrochloride (Tocris Bioscience, cat. 1254), and 50 ng/mL human EGF recombinant protein (Thermo Fisher Scientific, cat. PHG0311). The 485176-168-R4-J1-PDC line was cultured in Panc media, which includes all 6C/Colon 1B media components plus 100 ng/mL human FGF-10 (Thermo Fisher Scientific, cat. 100-26), 500 nM SB-431542 (Selleckchem, cat. S1067), and gastrin (Tocris, cat. 3006).
# […]
# [1] = compound alone, run of 04/22/2024
# 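Also: spheroids exposed to drugs for 7 days.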
# 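For viability, T/C in this document: 100% = DMSO vehicle control viability.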
compound,measurement,setting,value
CN(C)c1ccc(Nc2c3ccc(NC(=O)CCN4CCCC4)cc3nc3cc(NC(=O)CCN4CCCC4)ccc23)cc1,"viability, T/C",compound 0.1 µM,97.8% [middle of 12 runs]
same,"viability, T/C",compound 0.316 µM,101% [middle of 12 runs]
same,"viability, T/C",compound 1 µM,101% [middle of 12 runs]
same,"viability, T/C",compound 10 µM,99.7% [middle of 12 runs]
same,IC50,[1],> 10 µM
C=CC(=O)N1CCN(c2nc(=O)n(-c3c(C)ccnc3C(C)C)c3nc(-c4c(O)cccc4F)c(F)cc23)C(C)C1 (configuration not stated) + Cc1[nH]c2ccc(F)cc2c1-c1nc2c3cccnc3c3ncccc3c2[nH]1,IC50,"curve of first compound, second compound 0.0316 µM",> 10 µM
same,IC50,"curve of first compound, second compound 0.1 µM",> 10 µM
same,IC50,"curve of first compound, second compound 0.316 µM",> 10 µM
same,IC50,"curve of first compound, second compound 1 µM",> 10 µM
same,IC50,"curve of first compound, second compound 3.16 µM",> 10 µM
same,IC50,"curve of first compound, second compound 10 µM",> 10 µM
same,"viability, T/C","second compound 0.0316 µM, first compound 0.0316 µM",92.4%
same,"viability, T/C","second compound 0.0316 µM, first compound 0.1 µM",87.1%
same,"viability, T/C","second compound 0.0316 µM, first compound 0.316 µM",92.5%
same,"viability, T/C","second compound 0.0316 µM, first compound 1 µM",85.2%
same,"viability, T/C","second compound 0.0316 µM, first compound 3.16 µM",107%
same,"viability, T/C","second compound 0.0316 µM, first compound 10 µM",94.9%
same,"viability, T/C","second compound 0.1 µM, first compound 0.0316 µM",95.7%
same,"viability, T/C","second compound 0.1 µM, first compound 0.1 µM",97%
same,"viability, T/C","second compound 0.1 µM, first compound 0.316 µM",101%
same,"viability, T/C","second compound 0.1 µM, first compound 1 µM",78.5%
same,"viability, T/C","second compound 0.1 µM, first compound 3.16 µM",113%
same,"viability, T/C","second compound 0.1 µM, first compound 10 µM",92.8%
same,"viability, T/C","second compound 0.316 µM, first compound 0.0316 µM",98.9%
same,"viability, T/C","second compound 0.316 µM, first compound 0.1 µM",110%
same,"viability, T/C","second compound 0.316 µM, first compound 0.316 µM",89.3%
same,"viability, T/C","second compound 0.316 µM, first compound 1 µM",91.3%
same,"viability, T/C","second compound 0.316 µM, first compound 3.16 µM",97.2%
same,"viability, T/C","second compound 0.316 µM, first compound 10 µM",88.7%
same,"viability, T/C","second compound 1 µM, first compound 0.0316 µM",98.1%
same,"viability, T/C","second compound 1 µM, first compound 0.1 µM",88.4%
same,"viability, T/C","second compound 1 µM, first compound 0.316 µM",107%
same,"viability, T/C","second compound 1 µM, first compound 1 µM",87.6%
same,"viability, T/C","second compound 1 µM, first compound 3.16 µM",111%
same,"viability, T/C","second compound 1 µM, first compound 10 µM",96.3%
same,"viability, T/C","second compound 3.16 µM, first compound 0.0316 µM",84%
same,"viability, T/C","second compound 3.16 µM, first compound 0.1 µM",96.2%
same,"viability, T/C","second compound 3.16 µM, first compound 0.316 µM",92%
same,"viability, T/C","second compound 3.16 µM, first compound 1 µM",96%
same,"viability, T/C","second compound 3.16 µM, first compound 3.16 µM",108%
same,"viability, T/C","second compound 3.16 µM, first compound 10 µM",96%
same,"viability, T/C","second compound 10 µM, first compound 0.0316 µM",94%
same,"viability, T/C","second compound 10 µM, first compound 0.1 µM",99.7%
same,"viability, T/C","second compound 10 µM, first compound 0.316 µM",99.1%
same,"viability, T/C","second compound 10 µM, first compound 1 µM",109%
same,"viability, T/C","second compound 10 µM, first compound 3.16 µM",102%
same,"viability, T/C","second compound 10 µM, first compound 10 µM",80.8%
CC(C)(O)C1CCC(Nc2ccc3ncc(-c4cccc(C(F)(F)F)c4)n3n2)CC1 (configuration not stated),"viability, T/C",compound 0.0316 µM,82.3% and 96.5% and 103%
same,"viability, T/C",compound 0.1 µM,106% and 97.7% and 92.2%
same,"viability, T/C",compound 0.316 µM,101% and 99.8% and 99.6%
same,"viability, T/C",compound 1 µM,83.7% and 85.5% and 105%
same,"viability, T/C",compound 3.16 µM,55.3% and 49% and 56.7%
same,"viability, T/C",compound 10 µM,46.4% and 46% and 50%
same,IC50,curve of compound,6.25 µM and 3.04 µM and > 10 µM
CC1COCCN1c1cc(C2(S(C)(=N)=O)CC2)nc(-c2ccnc3[nH]ccc23)n1 (configuration not stated),"viability, T/C",compound 0.0316 µM,98.7% and 91.8% and 97.2%
same,"viability, T/C",compound 0.1 µM,84.2% and 100% and 98.6%
same,"viability, T/C",compound 0.316 µM,102% and 104% and 95.6%
same,"viability, T/C",compound 1 µM,52.7% and 36.2% and 49%
same,"viability, T/C",compound 3.16 µM,18.2% and 7.52% and 14.2%
same,"viability, T/C",compound 10 µM,6.83% and 5.23% and 6.65%
same,IC50,curve of compound,1.08 µM and 0.775 µM and 0.99 µM
Cc1cccc(N(C)C(=O)C2C(O)CCN2c2nc(C)cc(C(F)(F)F)c2C#N)c1 (configuration not stated),"viability, T/C",compound 0.0316 µM,109% and 93.9% and 95.1%
same,"viability, T/C",compound 0.1 µM,91% and 94.3% and 102%
same,"viability, T/C",compound 0.316 µM,95.7% and 97.1% and 115%
same,"viability, T/C",compound 1 µM,102% and 99.7% and 99.6%
same,"viability, T/C",compound 3.16 µM,116% and 97.7% and 102%
same,"viability, T/C",compound 10 µM,102% and 104% and 91.5%
same,IC50,curve of compound,> 10 µM
Cc1[nH]c2ccc(F)cc2c1-c1nc2c3cccnc3c3ncccc3c2[nH]1,"viability, T/C",compound 0.0316 µM,100% [middle of 12 runs]
same,"viability, T/C",compound 0.1 µM,101% [middle of 12 runs]
same,"viability, T/C",compound 1 µM,107% [middle of 12 runs]
same,"viability, T/C",compound 3.16 µM,98.9% [middle of 12 runs]
same,"viability, T/C",compound 10 µM,92.4% [middle of 12 runs]
same,IC50,"compound alone, run of 04/16/2024",> 10 µM
same,IC50,[1],> 10 µM
O=C(c1cc(Cc2n[nH]c(=O)c3ccccc23)ccc1F)N1CCN(C(=O)C2CC2)CC1,"viability, T/C",compound 0.0316 µM,102% and 105% and 100%
same,"viability, T/C",compound 0.1 µM,108% (2×) and 94.6%
same,"viability, T/C",compound 0.316 µM,96.4% and 112% and 87.3%
same,"viability, T/C",compound 1 µM,94.3% and 104% and 77.3%
same,"viability, T/C",compound 3.16 µM,93.3% and 92% and 82.2%
same,"viability, T/C",compound 10 µM,62.3% and 64.2% and 66.5%
same,IC50,curve of compound,> 10 µM
